# Data published in patent US20030148267A1, “Screening assay for hepatitis C virus antiviral agents” (priority 2001, published 2003).
# Several values for one entry are separate records, joined by “and”; a condition that tells them apart may be missing. Identical values can stand only once. Entries after “also recorded” stand apart in the source; their conditions may differ.
# How the values were obtained:
# [1] = test system: HCV (−) RNA synthesis; test: HCV (−) strand RNA synthesis in binary HCV expression system (RNase protection assay, strand-specific RT-PCR); type: cell-based, hepatitis C virus (genotype 1a, strain H77); conditions: for HCV (−) strand results with other timing of the drug: drug given 0 and 12 hours before vTF7-3 infection instead of 20 hours; for HCV replicative strand synthesis: the two RBV doses (50 and 400)
# [2] = test system: HCV RNA; test: HCV RNA quasispecies analysis (mutation rate) in transfected/infected CV-1 cells; type: cell-based, hepatitis C virus (genotype 1a, strain H77); set-up: nucleotide substitutions / substitutions / error generation / dN/dS (nonsynonymous/synonymous mutation): unit of the concentration uncertain
# Experimental: Twenty-four hours post-vvT7, cells were lysed and RNA was extracted by TRIzol (GIBCO/BRL), DNase I-treated (Roche Molecular Biochemicals), and phenol-chloroform extracted.
# RT-PCR was performed for the 5′UTR, core, E2-HVR1, NS5A and NS5B regions using region-specific primers: […]
# RT was carried out on extracted RNA using AMV reverse transcriptase (Perkin-Elmer) using standard conditions. 25 cycles of PCR were carried out using 25 pmol each of the relevant sense and antisense primers, 0.5 mM of each dNTP, 1.5 mM MgCl2, and 0.5 units of Taq polymerase (Perkin-Elmer).
# Amplicons were cloned using the TOPO-PCR system (Invitrogen). Between 11 and 20 individual transformants corresponding to each region were sequenced bidirectionally by the ABI Prism automated sequencer, using primers flanking the insert. Synonymous and non-synonymous substitutions at variance from the parent pT7flHCV-Rz and pT7HCVDBglII-Rz sequences were determined and error generation rates calculated as nucleotide substitutions/total nucleotides sequenced. Sequences were aligned, and quasispecies diversity rates were compared between groups by using the statistical package SPSS 9.0.
# [3] = test system: HSV-1; test: HSV-1 plaque formation in CV-1 cells; type: cell-based; conditions: the two RBV doses (50 and 400); listed as RBV
# [4] = test system: HCV core protein
# [5] = RBV 50, E2 (HVR-1), listed as REV
compound,measurement,setting,value
NC12CC3CC(CC(C3)C1)C2 [amantadine],HCV (−) strand synthesis,[1]; doses 1-100 mg/well,no activity; also recorded: Neither ribavirin nor amantadine demonstrated direct activity
same,HCV (−) strand results with other timing of the drug,[1],unchanged
NC(=O)c1ncn([C@@H]2O[C@H](CO)[C@@H](O)[C@H]2O)n1 [ribavirin],additional RNA inhibitory effects,[1]; RBV added to IFN,not seen
same,HCV (−) RNA synthesis,[1]; doses of 10-200 mg/well,No inhibitory effect; also recorded: Neither ribavirin nor amantadine demonstrated direct activity
same,HCV (−) strand results with other timing of the drug,[1],unchanged
same,HCV replicative strand synthesis,[1],no effect
same,HCV replicative strand synthesis,[1]; listed as RBV,no direct decrease
same,error generation throughout the viral genome compared with the lower dose,"[2]; 400 mM vs 50 mM, differences not statistically significant",to a lesser degree than that observed at the lower dose
same,nucleotide substitutions,"[2]; 50 (unit uncertain), HVR-1 region",15
same,substitutions,"[2]; 50 (unit uncertain), core region",12
same,error generation,"[2]; 400 (unit uncertain), across all regions",0.6-1.2 ×10^−3
same,Total Mutations (all regions),[2]; RBV 50,54
same,ERROR GEN RATE,"[2]; RBV 50, 5′UTR",0.7 X 10^−3
same,MUTANT CLONES (%),"[2]; RBV 50, 5′UTR",3(20%)
same,NONSYN/SYN SUBS,"[2]; RBV 50, 5′UTR",0/3
same,Transition Mutations T to C,"[2]; RBV 50, 5′UTR",2
same,NONSYN/SYN SUBS,"[2]; RBV 50, CORE",8/4
same,Transition Mutations C to T,"[2]; RBV 50, CORE",2
same,Transition Mutations T to C,"[2]; RBV 50, CORE",2
same,insertions (resulting in stop codons),"[2]; RBV 50, CORE",2 insertions
same,ERROR GEN RATE,"[2]; RBV 50, CORE, listed as RBV",1.9^1 X 10^−3
same,ERROR GEN RATE,"[2]; RBV 50, CORE, listed as REV",1.9^2 X 10^−3
same,MUTANT CLONES (%),"[2]; RBV 50, CORE, listed as REV",7(50%)
same,nt-insertions,"[2]; RBV 50, CORE, listed as REV",4 nt-insertions
same,NONSYN/SYN SUBS,"[2]; RBV 50, E2",11/4
same,Transition Mutations A to G,"[2]; RBV 50, E2",4
same,Transition Mutations C to T,"[2]; RBV 50, E2",1
same,Transition Mutations G to A,"[2]; RBV 50, E2",1
same,Transition Mutations T to C,"[2]; RBV 50, E2",6
same,insertions (resulting in stop codons),"[2]; RBV 50, E2",2 insertions
same,ERROR GEN RATE,"[2]; RBV 50, E2 (HVR-1), listed as RBV",1.7 X 10^−3 and 1.5^2 X 10^−3
same,ERROR GEN RATE,[2]; [5],1.5 X 10^−3
same,MUTANT CLONES (%),[2]; [5],12(60%)
same,nt-deletion,[2]; [5],1 nt-deletion
same,nt-insertion,[2]; [5],1 nt-insertion
same,ERROR GEN RATE,"[2]; RBV 50, NS5A",2.5^3 X 10^−3
same,MUTANT CLONES (%),"[2]; RBV 50, NS5A",5(20%)
same,NONSYN/SYN SUBS,"[2]; RBV 50, NS5A",12/0
same,Transition Mutations A to G,"[2]; RBV 50, NS5A",1
same,Transition Mutations C to T,"[2]; RBV 50, NS5A",1
same,ERROR GEN RATE,"[2]; RBV 50, NS5B",1.7 X 10^−3
same,Transition Mutations A to G,"[2]; RBV 50, NS5B",2
same,Transition Mutations C to T,"[2]; RBV 50, NS5B",1
same,Transition Mutations G to A,"[2]; RBV 50, NS5B",4
same,MUTANT CLONES (%),"[2]; RBV 50, NS5B, listed as RBV",7(39%)
same,NONSYN/SYN SUBS,"[2]; RBV 50, NS5B, listed as RBV",9/3
same,NONSYN/SYN SUBS,"[2]; RBV 50, NS5B, listed as REV",9/4
same,MUTANT CLONES (%),"[2]; RBV 50, all regions",29(33%)
same,Non-Syn/Syn Substitutions,"[2]; RBV 50, all regions",40/14
same,dose-responsiveness of mutations,[2]; RBV 50 vs 400,not a demonstrable dose-responsiveness
same,Total Mutations (all regions),[2]; RBV 400,31
same,ERROR GEN RATE,"[2]; RBV 400, 5′UTR",0.7 X 10^−3
same,MUTANT CLONES (%),"[2]; RBV 400, 5′UTR",3(21%)
same,NONSYN/SYN SUBS,"[2]; RBV 400, 5′UTR",0/3
same,Transition Mutations A to G,"[2]; RBV 400, 5′UTR",1
same,Transition Mutations G to A,"[2]; RBV 400, 5′UTR",1
same,MUTANT CLONES (%),"[2]; RBV 400, CORE",4(20%)
same,NONSYN/SYN SUBS,"[2]; RBV 400, CORE",5/1
same,Transition Mutations A to G,"[2]; RBV 400, CORE",1
same,Transition Mutations C to T,"[2]; RBV 400, CORE",2
same,Transition Mutations G to A,"[2]; RBV 400, CORE",1
same,Transition Mutations T to C,"[2]; RBV 400, CORE",1
same,ERROR GEN RATE,"[2]; RBV 400, CORE, listed as RBV",0.6^4 X 10^−3 and 0.6 X 10^−3
same,MUTANT CLONES (%),"[2]; RBV 400, E2",7(35%)
same,Transition Mutations A to G,"[2]; RBV 400, E2",3
same,Transition Mutations C to T,"[2]; RBV 400, E2",2
same,Transition Mutations G to A,"[2]; RBV 400, E2",1
same,Transition Mutations T to C,"[2]; RBV 400, E2",1
same,insertions,"[2]; RBV 400, E2",2 insertions
same,ERROR GEN RATE,"[2]; RBV 400, E2, listed as RBV",1.2 X 10^−3 and 1.2^4 X 10^−3
same,NONSYN/SYN SUBS,"[2]; RBV 400, E2, listed as RBV",9/4 and 7/5
same,ERROR GEN RATE,"[2]; RBV 400, NS5A",0.9 X 10^−3
same,MUTANT CLONES (%),"[2]; RBV 400, NS5A",2(14%)
same,NONSYN/SYN SUBS,"[2]; RBV 400, NS5A",3/0
same,ERROR GEN RATE,"[2]; RBV 400, NS5B",1 X 10^−3
same,MUTANT CLONES (%),"[2]; RBV 400, NS5B",6(35%)
same,NONSYN/SYN SUBS,"[2]; RBV 400, NS5B",5/2
same,Transition Mutations A to G,"[2]; RBV 400, NS5B",2
same,Transition Mutations G to A,"[2]; RBV 400, NS5B",1
same,Transition Mutations T to C,"[2]; RBV 400, NS5B",2
same,MUTANT CLONES (%),"[2]; RBV 400, all regions",25(30%)
same,Non-Syn/Syn Substitutions,"[2]; RBV 400, all regions",20/11
same,induction of mutations / error generation in the HCV genome,"[2]; RBV, all regions tested, listed as RBV",induces mutations across all regions; also recorded: increases error generation
same,dN/dS (nonsynonymous/synonymous mutation),"[2]; ribavirin at 50 (unit uncertain), all regions tested",2.85
same,HSV-1 plaque formation in CV-1 cells,[3],activity against HSV-1
interferon-α-2b,HCV core protein synthesis,[4],dose-responsive inhibition
same,HCV (−) RNA synthesis,"[1]; doses from 2000 to 15,000 units/well, CV-1 cells",dose-dependent inhibition
same,Total Mutations (all regions),"[2]; IFN 100,000",30
same,MUTANT CLONES (%),"[2]; IFN 100,000, all regions",19(30%)
same,Non-Syn/Syn Substitutions,"[2]; IFN 100,000, all regions",20/10
same,5′ UTR sequences,"[2]; IFN 100,000 U",remained invariant
same,ERROR GEN RATE,"[2]; IFN 100,000U, 5′UTR",0 X 10^−3
same,MUTANT CLONES (%),"[2]; IFN 100,000U, 5′UTR",0
same,NONSYN/SYN SUBS,"[2]; IFN 100,000U, 5′UTR",0
same,MUTANT CLONES (%),"[2]; IFN 100,000U, CORE",4(36%)
same,NONSYN/SYN SUBS,"[2]; IFN 100,000U, CORE",2/2
same,Transition Mutations T to C,"[2]; IFN 100,000U, CORE",2
same,ERROR GEN RATE,"[2]; IFN 100,000U, CORE, listed as IFN",0.8^5 X 10^−3 and 0.8 X 10^−3
same,ERROR GEN RATE,"[2]; IFN 100,000U, E2",2.8^6 X 10^−3
same,MUTANT CLONES (%),"[2]; IFN 100,000U, E2",10(83%)
same,NONSYN/SYN SUBS,"[2]; IFN 100,000U, E2",10/6
same,Transition Mutations A to G,"[2]; IFN 100,000U, E2",4
same,Transition Mutations C to T,"[2]; IFN 100,000U, E2",2
same,Transition Mutations T to C,"[2]; IFN 100,000U, E2",9
same,stop codon,"[2]; IFN 100,000U, E2",1
same,ERROR GEN RATE,"[2]; IFN 100,000U, NS5A",1.4 X 10^−3
same,MUTANT CLONES (%),"[2]; IFN 100,000U, NS5A",3(16%)
same,NONSYN/SYN SUBS,"[2]; IFN 100,000U, NS5A",5/1
same,Transition Mutations A to G,"[2]; IFN 100,000U, NS5A",1
same,Transition Mutations C to A,"[2]; IFN 100,000U, NS5A",2
same,Transition Mutations T to C,"[2]; IFN 100,000U, NS5A",1
same,ERROR GEN RATE,"[2]; IFN 100,000U, NS5B",0.9 X 10^−3
same,MUTANT CLONES (%),"[2]; IFN 100,000U, NS5B",2(18%)
same,NONSYN/SYN SUBS,"[2]; IFN 100,000U, NS5B",3/1
same,dN/dS (nonsynonymous/synonymous mutation),"[2]; IFN-α, all regions tested",2.0
